Reference: US11999727B2 (Tango Therapeutics, Inc., priority 2020, dated 2024)

Legend:
PRMT5 [1] = biological target: T1, PRMT5 (Homo sapiens, UniProt O14744); assay: PRMT5 biochemical IC50 assay with SAM as cofactor; details: PRMT5, SAM as cofactor; read-out: SAM IC50
T1 construct: purchased Viva (custom protein)

PRMT5 [2] = biological target: T1, PRMT5; assay: PRMT5 biochemical IC50 assay with no cofactor; details: PRMT5, no cofactor
Description: Table 1 indicates IC50 values (μM) against PRMT5 for exemplary compounds in the presence of SAM as cofactor, with no cofactor, and with MTA as cofactor, respectively (columns 4-6). […] Ki values can be calculated from the IC50 values as described in the Examples section. As detailed in the Examples section, for the assay performed in the presence of SAM, IC50=Ki×1.5 (Ki=IC50/1.5).

PRMT5 [3] = biological target: T1, PRMT5; assay: PRMT5 biochemical IC50 assay with MTA as cofactor; details: PRMT5, MTA as cofactor; read-out: MTA IC50
[4] = test system: HAP1 MTAP-intact cell line; assay: SDMA in-cell western assay, HAP1 MTAP-intact; assay type: cell-based; details: Homo sapiens, HAP1, SDMA in-cell western, HAP1 MTAP-intact; read-out: MTAP HAP1 intact IC50
How it was run: (§1)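 Readout: in-cell western detection of SDMA. Cells: HAP1 expressing endogenous MTAP and an MTAP-null HAP1 counterpart. Output: IC50.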

[5] = test system: HAP1 MTAP-deleted cell line; assay: SDMA in-cell western assay, HAP1 MTAP-deleted; assay type: cell-based; details: for IC50: Homo sapiens, HAP1, SDMA in-cell western, HAP1 MTAP-deleted; for MTAP intact/deleted ratio: SDMA in-cell western
How it was run: as §1

[6] = test system: HAP1 MTAP-deleted cell line; assay: Viability assay, MTAP-deleted cell line; assay type: cell-based; details: Homo sapiens, read-out: HAP1 MTAP deleted viability
Description: Table 1 additionally indicates IC50 values in a viability assay for the MTAP-deleted cell line (column 10), indicating the effect of treatment with compound on cell survival.

[7] = read-out: No Cofactor/ rel IC50
[8] = read-out: HAP 1 MTAP deleted IC50
[9] = IC50 ratio HAP1 MTAP-intact / HAP1 MTAP-deleted
[10] = HAP1, viability assay, MTAP-deleted cell line
[11] = read-out: HAP1 MTAP deleted IC50
[12] = IC50 ratio HAP1 MTAP-intact vs HAP1 MTAP-deleted
[13] = HAP1, viability assay, HAP1 MTAP-deleted
[14] = HAP1, viability IC50, MTAP-deleted cell line
[15] = HAP1, viability, HAP1 MTAP-deleted cell line

T1 sequence (O14744 whole entry): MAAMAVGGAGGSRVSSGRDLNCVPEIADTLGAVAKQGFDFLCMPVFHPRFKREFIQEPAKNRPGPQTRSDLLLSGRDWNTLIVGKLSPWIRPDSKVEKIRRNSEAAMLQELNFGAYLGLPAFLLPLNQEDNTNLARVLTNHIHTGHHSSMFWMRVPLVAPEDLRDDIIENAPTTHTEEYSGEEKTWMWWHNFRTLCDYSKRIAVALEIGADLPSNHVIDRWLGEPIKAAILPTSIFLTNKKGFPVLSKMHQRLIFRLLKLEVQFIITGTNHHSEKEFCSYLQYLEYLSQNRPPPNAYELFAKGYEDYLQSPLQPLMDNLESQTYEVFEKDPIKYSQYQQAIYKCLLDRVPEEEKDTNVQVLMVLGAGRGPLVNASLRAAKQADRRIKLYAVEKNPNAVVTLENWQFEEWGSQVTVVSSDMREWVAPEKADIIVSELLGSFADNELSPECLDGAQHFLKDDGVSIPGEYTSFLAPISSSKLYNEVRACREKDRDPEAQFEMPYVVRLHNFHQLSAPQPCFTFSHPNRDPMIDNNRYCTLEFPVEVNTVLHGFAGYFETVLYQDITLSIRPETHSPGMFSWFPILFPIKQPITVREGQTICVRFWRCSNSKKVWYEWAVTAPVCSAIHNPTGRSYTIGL
T1 sequence (Q9BQA1 whole entry partner): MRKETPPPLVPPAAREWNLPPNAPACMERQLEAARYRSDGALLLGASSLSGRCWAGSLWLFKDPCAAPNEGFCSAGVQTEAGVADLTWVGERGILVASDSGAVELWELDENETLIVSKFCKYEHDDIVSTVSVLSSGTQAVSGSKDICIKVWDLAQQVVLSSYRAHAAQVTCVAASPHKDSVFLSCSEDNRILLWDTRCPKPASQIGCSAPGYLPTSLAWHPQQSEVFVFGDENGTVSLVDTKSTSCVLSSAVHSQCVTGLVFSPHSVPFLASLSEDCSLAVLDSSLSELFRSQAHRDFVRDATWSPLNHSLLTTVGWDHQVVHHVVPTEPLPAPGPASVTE

Row | SMILES | IC50 (PRMT5 [1]) | IC50 (PRMT5 [2]; [7]) | IC50 (PRMT5 [3]) | IC50 [4] | IC50 [5, 8] | MTAP intact/deleted ratio [5, 9] | IC50 [6, 10] | IC50 (PRMT5 [2]; read-out: No Cofactor/rel IC50) | IC50 [5, 11] | MTAP intact/deleted ratio [5, 12] | IC50 [6, 13] | IC50 [6, 14] | IC50 [6, 15]
1 | Cc1cc(NC(=O)C(=O)N2C[C@H]3CC[C@H](C3)[C@@H]2c2ccccc2)cnc1N (single isomer, unassigned) [Compound 63] | > 500 nM | > 500 nM | > 500 nM | > 1000 nM | > 1000 nM | C (an IC50 ratio of less than 3 fold) | > 10000 nM | – | – | – | – | – | –
2 | CCc1cc(NC(=O)C(=O)N2C[C@@H](C)CC[C@@H]2c2ccc3nn(C4CC(C)(C)N(C)C(C)(C)C4)cc3c2)cnc1N (racemic) [Compound 1140, N-(6-Amino-5-ethyl-3-pyridyl)-2-oxo-2-[rac-(2R,5S)-5-methyl-2-[2-(1,2,2,6,6-pentamethyl-4-piperidyl)indazol-5-yl]-1-piperidyl]acetamide] | < 50 nM | – | < 50 nM | < 100 nM | – | – | < 1000 nM | < 50 nM | < 100 nM | A (an IC50 ratio greater than or equal to 10 fold) | – | – | –
3 | Cc1cncc(NC(=O)C(=O)N2C[C@H](C)CC[C@H]2c2cccc(Cl)c2)c1 (racemic) [Compound 13, 2-[(2R,5S)-2-(3-chlorophenyl)-5-methyl-1-piperidyl]-N-(5-methyl-3-pyridyl)-2-oxo-acetamide] | > 500 nM | > 500 nM | 50 to 500 nM | > 1000 nM | > 1000 nM | C (an IC50 ratio of less than 3 fold) | > 10000 nM | – | – | – | – | – | –
4 | C[C@@H]1CC[C@@H](c2ccc3sc(C(F)(F)F)nc3c2)N(C(=O)C(=O)Nc2cncc(C(N)=O)c2)C1 (single isomer, unassigned) [Compound 1029] | > 500 nM | – | > 500 nM | > 1000 nM | > 1000 nM | B (an IC50 ratio greater than or equal to 3 fold but lower than 10 fold) | > 10000 nM | > 500 nM | – | – | – | – | –
5 | NC(=O)c1cncc(NC(=O)C(=O)N2CCCCC2C2CCCCC2)c1 (stereo not shown) [Compound 101, 5-(2-(2-cyclohexylpiperidin-1-yl)-2-oxoacetamido)nicotinamide] | 50 to 500 nM | 50 to 500 nM | < 50 nM | > 1000 nM | < 100 nM | A (an IC50 ratio greater than or equal to 10 fold) | > 10000 nM | – | – | – | – | – | –
6 | C[C@@H]1CC[C@@H](c2ccc(S(N)(=O)=O)cc2)N(C(=O)C(=O)Nc2cncc(C(N)=O)c2)C1 (single isomer, unassigned) [Compound 725] | 50 to 500 nM | – | < 50 nM | > 1000 nM | – | C (an IC50 ratio of less than 3 fold) | – | 50 to 500 nM | > 1000 nM | – | > 10000 nM | – | –
7 | Cc1ccc([C@@H]2CC[C@@H](C)CN2C(=O)C(=O)Nc2cnc(N)c(C)c2)cc1O (racemic) [Compound 580, N-(6-amino-5-methylpyridin-3-yl)-2-(2-(3-hydroxy-4-methylphenyl)-5-methylpiperidin-1-yl)-2-oxoacetamide] | 50 to 500 nM | – | 50 to 500 nM | 100 to 1000 nM | < 100 nM | A (an IC50 ratio greater than or equal to 10 fold) | – | 50 to 500 nM | – | – | – | < 1000 nM | –
8 | CCc1cc(NC(=O)C(=O)N2C[C@@H](C)CC[C@@H]2c2ccc(CCN(C)C)c(Cl)c2)cnc1N [Compound 1402, N-(6-amino-5-ethylpyridin-3-yl)-2-((2R,5S)-2-(3-chloro-4-(2-(dimethylamino)ethyl)phenyl)-5-methylpiperidin-1-yl)-2-oxoacetamide] | 50 to 500 nM | < 50 nM | < 50 nM | 100 to 1000 nM | < 100 nM | A (an IC50 ratio greater than or equal to 10 fold) | – | – | – | – | – | – | < 1000 nM
9 | C[C@H]1CN(C(=O)C(=O)Nc2cncc(C(N)=O)c2)[C@H](c2ccc(F)cc2)CC1(F)F (single isomer, unassigned) [Compound 731] | 50 to 500 nM | – | < 50 nM | > 1000 nM | – | A (an IC50 ratio greater than or equal to 10 fold) | – | 50 to 500 nM | < 100 nM | – | 1000 to 10000 nM | – | –
10 | CO[C@@H]1C[C@@H](c2ccc3scnc3c2)N(C(=O)C(=O)Nc2cncc(C(N)=O)c2)C[C@@H]1C (single isomer, unassigned) [Compound 1161] | 50 to 500 nM | – | < 50 nM | 100 to 1000 nM | – | – | < 1000 nM | < 50 nM | < 100 nM | A (an IC50 ratio greater than or equal to 10 fold) | – | – | –
11 | CCc1cc(NC(=O)C(=O)N2C[C@@H](C)CC[C@@H]2c2ccc3sc(CO)nc3c2)cnc1N [Compound 1152, N-(6-amino-5-ethylpyridin-3-yl)-2-((2R,5S)-2-(2-(hydroxymethyl)benzo[d]thiazol-5-yl)-5-methylpiperidin-1-yl)-2-oxoacetamide] | 50 to 500 nM | – | < 50 nM | 100 to 1000 nM | – | – | < 1000 nM | < 50 nM | < 100 nM | A (an IC50 ratio greater than or equal to 10 fold) | – | – | –
12 | C[C@@H]1CC[C@@](C)(c2ccccc2)N(C(=O)C(=O)Nc2cncc(C(N)=O)c2)C1 (racemic) [Compound 521, 5-(2-(2,5-dimethyl-2-phenylpiperidin-1-yl)-2-oxoacetamido)nicotinamide] | > 500 nM | – | 50 to 500 nM | > 1000 nM | – | B (an IC50 ratio greater than or equal to 3 fold but lower than 10 fold) | > 10000 nM | > 500 nM | > 1000 nM | – | – | – | –
13 | CC(=O)N1CCC(c2cccc([C@@H]3CC[C@@H](C)CN3C(=O)C(=O)Nc3cncc(C(N)=O)c3)c2)CC1 (single isomer, unassigned) [Compound 346] | 50 to 500 nM | – | < 50 nM | > 1000 nM | – | A (an IC50 ratio greater than or equal to 10 fold) | 1000 to 10000 nM | 50 to 500 nM | 100 to 1000 nM | – | – | – | –
14 | Cc1cc(NC(=O)C(=O)N2C[C@@H](C)CC[C@@H]2c2ccc(NCC(F)(F)F)cc2)cnc1N (single isomer, unassigned) [Compound 528] | > 500 nM | – | > 500 nM | > 1000 nM | > 1000 nM | B (an IC50 ratio greater than or equal to 3 fold but lower than 10 fold) | – | > 500 nM | – | – | – | 1000 to 10000 nM | –
15 | COc1ncc(NC(=O)C(=O)N2C[C@@H](C)CC[C@@H]2c2ccc3c(c2)CNC3=O)cc1C(N)=O (single isomer, unassigned) [Compound 750, 2-methoxy-5-(2-(5-methyl-2-(1-oxoisoindolin-5-yl)piperidin-1-yl)-2-oxoacetamido)nicotinamide] | > 500 nM | – | > 500 nM | > 1000 nM | – | C (an IC50 ratio of less than 3 fold) | – | > 500 nM | > 1000 nM | – | > 10000 nM | – | –
16 | Cc1ncc(NC(=O)C(=O)N2C[C@H](C)CC[C@H]2c2ccc3c(c2)CCC(=O)N3)cc1C(F)F (single isomer, unassigned) [Compound 874] | 50 to 500 nM | – | < 50 nM | 100 to 1000 nM | – | A (an IC50 ratio greater than or equal to 10 fold) | – | 50 to 500 nM | < 100 nM | – | < 1000 nM | – | –
17 | Cc1cc(NC(=O)C(=O)N2C[C@@H](C)CC[C@@H]2c2ccc3sc(-c4cccnc4)nc3c2)cnc1N (single isomer, unassigned) [Compound 1310] | 50 to 500 nM | < 50 nM | < 50 nM | < 100 nM | < 100 nM | A (an IC50 ratio greater than or equal to 10 fold) | – | – | – | – | – | – | < 1000 nM
18 | COc1ncc(NC(=O)C(=O)N2C[C@H](C)CC[C@H]2c2ccc3[nH]c(C)nc3c2)cc1C(N)=O (single isomer, unassigned) [Compound 917] | 50 to 500 nM | – | < 50 nM | > 1000 nM | < 100 nM | A (an IC50 ratio greater than or equal to 10 fold) | 1000 to 10000 nM | < 50 nM | – | – | – | – | –
19 | Cc1cncc(NC(=O)C(=O)N2C[C@H](C)CC[C@H]2c2cccc(C)c2)c1 (racemic) [Compound 8, rac-2-[(2R,5S)-5-methyl-2-(m-tolyl)-1-piperidyl]-N-(5-methyl-3-pyridyl)-2-oxo-acetamide] | > 500 nM | > 500 nM | 50 to 500 nM | > 1000 nM | > 1000 nM | C (an IC50 ratio of less than 3 fold) | > 10000 nM | – | – | – | – | – | –
